Laboratory results taken from patent publication US7897815B2, “Hexafluoroisopropanol derivatives” (Hoffmann-La Roche Inc., priority 2004, dated 2011).

Tests used:
[1] = target: T1, human LXR alpha (GST-LXRα-LBD) (Homo sapiens, UniProt Q13133); experiment: Radioligand binding assay (SPA), LXR alpha; conditions: GST-LXRα-LBD on SPA beads, read-out: LXRalpha Binding IC50
T1 construct: human LXR alpha (aa 164 to 447); made in house; host or cells: E. coli BL21 (pLysS)
T1 sequence (Q13133 164-447): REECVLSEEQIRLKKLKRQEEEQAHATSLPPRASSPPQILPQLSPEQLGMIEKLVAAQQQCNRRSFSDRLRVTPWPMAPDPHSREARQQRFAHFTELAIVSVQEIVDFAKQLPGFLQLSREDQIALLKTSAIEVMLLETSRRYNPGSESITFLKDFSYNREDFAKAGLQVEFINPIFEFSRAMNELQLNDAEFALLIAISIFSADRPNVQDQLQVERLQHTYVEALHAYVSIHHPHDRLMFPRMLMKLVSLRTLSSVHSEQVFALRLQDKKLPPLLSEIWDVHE
Protocol: The following tests were carried out in order to determine the activity of the compounds of the present invention. Background information on the performed assays can be found in: Nichols J S et al. “Development of a scintillation proximity assay for peroxisome proliferator-activated receptor gamma ligand binding domain”, Anal Biochem. 1998, 257: 112-119.
Mammalian expression vectors were constructed to express full-length human LXR alpha and LXR beta. Bacterial expression vectors were constructed to produce glutathione-s-transferase (GST) fused to the ligand binding domains (LBD) of human LXR alpha (aa 164 to 447) and human LXR beta (aa 155 to 460). To accomplish this, the portions of the sequences encoding the LBDs were amplified from full-length clones by PCR and then subcloned into the plasmid vectors. Final clones were verified by DNA sequence analysis (Willy et al., Genes Dev. 1995, 9:1033-45; Song et al., Proc Natl Acad Sci USA. 1994, 91:10809-13).
Induction, expression, and purification of GST-LBD fusion proteins were performed in E. coli strain BL21 (pLysS) cells by standard methods (Ref: Current Protocols in Molecular Biology, Wiley Press, edited by Ausubel et al).
LXR alpha and LXR beta receptor binding were assayed in buffer consisting of 50 mM HEPES, pH 7.4, 10 mM NaCl, 5 mM MgCl2. For each 96-well reaction, 500 ng of GST-LXRα-LBD or 700 ng of GST-LXR beta-LBD fusion proteins were bound to 80 μg or 40 μg SPA beads (Pharmacia Amersham) respectively, in a final volume of 50 μl by shaking. The resulting slurry was incubated for 1 h at RT and centrifuged for 2 min at 1300×g. The supernatant containing unbound protein was removed, and the semi-dry pellet containing the receptor-coated beads was re-suspended in 50 μl of buffer. […] All binding assays were performed in 96-well plates and the amount of bound ligand was measured on a Packard TopCount using OptiPlates (Packard). Dose response curves were measured within a range of concentration from 10^−10 M to 10^−4 M.

[2] = target: T2, human LXR beta (GST-LXR beta-LBD) (Homo sapiens, UniProt P55055); experiment: Radioligand binding assay (SPA), LXR beta; conditions: GST-LXR beta-LBD on SPA beads, read-out: LXRbeta Binding IC50
T2 construct: human LXR beta (aa 155 to 460); made in house; host or cells: E. coli BL21 (pLysS)
T2 sequence (P55055 155-460): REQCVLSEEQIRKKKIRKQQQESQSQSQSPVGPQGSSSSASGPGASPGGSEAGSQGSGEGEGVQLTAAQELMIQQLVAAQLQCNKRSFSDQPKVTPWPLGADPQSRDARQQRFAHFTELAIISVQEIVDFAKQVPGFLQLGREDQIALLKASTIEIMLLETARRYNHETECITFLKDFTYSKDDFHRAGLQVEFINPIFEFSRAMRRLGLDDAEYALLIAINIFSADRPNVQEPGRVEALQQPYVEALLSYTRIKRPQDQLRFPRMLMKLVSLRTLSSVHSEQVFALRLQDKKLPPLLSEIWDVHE
Protocol: The following tests were carried out in order to determine the activity of the compounds of the present invention.
Mammalian expression vectors were constructed to express full-length human LXR alpha and LXR beta. […] To accomplish this, the portions of the sequences encoding the LBDs were amplified from full-length clones by PCR and then subcloned into the plasmid vectors.
LXR alpha and LXR beta receptor binding were assayed in buffer consisting of 50 mM HEPES, pH 7.4, 10 mM NaCl, 5 mM MgCl2. […] The resulting slurry was incubated for 1 h at RT and centrifuged for 2 min at 1300×g. The supernatant containing unbound protein was removed, and the semi-dry pellet containing the receptor-coated beads was re-suspended in 50 μl of buffer. Radioligand (eg. 100,000 dpm of (N-(2,2,2-trifluoroethyl)-N-[4-(2,2,2-trifluoro-1-hydroxy-1-trifluoromethylethyl)-phenyl]-benzenesulfonamide)) was added, and the reaction incubated at RT for 1 h in the presence of test compounds, and then scintillation proximity counting was performed. All binding assays were performed in 96-well plates and the amount of bound ligand was measured on a Packard TopCount using OptiPlates (Packard). Dose response curves were measured within a range of concentration from 10^−10 M to 10^−4 M.

Compound CCN(Cc1ccccc1)c1ccc(C(O)(C(F)(F)F)C(F)(F)F)cc1 [Example 1, 2-[4-(benzyl-ethyl-amino)-phenyl]-1,1,1,3,3,3-hexafluoro-propan-2-ol] has an IC50 [1] of 46 nM.
Work on CCN(Cc1cscn1)c1ccc(C(O)(C(F)(F)F)C(F)(F)F)cc1Cl [Example 18, 2-{3-chloro-4-[ethyl-(thiazol-4-ylmethyl)-amino]-phenyl}-1,1,1,3,3,3-hexafluoro-propan-2-ol] yielded an IC50 [1] of 17 nM.
Compound CCN(Cc1nc(-c2cccc(C(=O)OC)c2)oc1C)c1ccc(C(O)(C(F)(F)F)C(F)(F)F)cc1 [Example 30, 3-[4-({ethyl-[4-(2,2,2-trifluoro-1-hydroxy-1-trifluoromethyl-ethyl)-phenyl]-amino}-methyl)-5-methyl-oxazol-2-yl]-benzoic acid methyl ester] has an IC50 [2] of 5.7 nM and an IC50 [1] of 2.7 nM.
